According to publication PMC6225165, “Design and Synthesis of Novel Dehydroepiandrosterone Analogues as Potent Antiproliferative Agents” (Molecules : A Journal of Synthetic Chemistry and Natural …, 2018):
pIC50: −log10 of the molar value.

What was measured:
[1] = tested on: A549; assay: MTT antiproliferative assay, A549; assay type: cell-based, human; conditions: for inhibition at 100 µM / pIC50 / % Growth Inhibition at 100 μM A549: 48 h, MTT; for inhibition at 100 µM: read-out: % Growth Inhibition at 100 μM A549
Description: (§1) The antiproliferative activity of the title compounds against the panel of six different human cancer cell lines, viz. lung (A549), cervix (HeLa), liver (HepG-2), liver (BEL7402), colorectal (HCT116), and breast (MCF-7) cell lines, was evaluated using a standard MTT-based colorimetric assay. All cell lines were obtained from the Key Laboratory of Natural Resources and Functional Molecules of the Changbai Mountain (Yanbian University) and maintained in Dulbecco’s modified Eagle’s medium (DMEM) and RPMI Media 1640 (RPMI1640), supplemented with 10% foetal bovine serum (FBS) at 37 °C in a humidified atmosphere containing 5% CO2.
(§2) Cells were plated in 96-well plates at appropriate densities to ensure exponential growth throughout the experimental period (9 × 10^3 cells per well), and then allowed to adhere for 24 h. Cells were then treated for 48 h with each compound. After 48 h of incubation, 10 μL of MTT solution were added to each well to a final concentration of 2 mg·mL^−1. Plates were then incubated for a further 4 h. After incubation, the MTT solution was removed and 150 μL of DMSO were added to each well for coloration. The plates were shaken vigorously for 10 min at room temperature to ensure complete solubilisation. The optometric density (OD) was read on a microplate reader (EL × 800, BioTek, Highland Park, Winooski, VT, USA) at 492 nm, and the data were subsequently analysed. The percentage of cell growth inhibition was calculated from the following equation:Inhibitory rate (%) = [1 − (ODtreated − ODblank)/(ODcontrol − ODblank)] × 100.
(§3) To obtain the antiproliferative activity of compounds 2a–2w, the compounds were selected in the same way with four serial concentrations (1, 10, 50 and 100 μM) of those compounds. The optometric density (OD) reading was then used to calculate the IC50.

[2] = tested on: Hela; assay: MTT antiproliferative assay, Hela; assay type: cell-based, human; conditions: for pIC50 / inhibition at 100 µM / % Growth Inhibition at 100 μM Hela: 48 h, MTT; for inhibition at 100 µM: read-out: % Growth Inhibition at 100 μM Hela
Description: as §1, §2, §3

[3] = tested on: HepG-2; assay: MTT antiproliferative assay, HepG-2; assay type: cell-based, human; conditions: for inhibition at 100 µM / pIC50 / % Growth Inhibition at 100 μM HepG-2: 48 h, MTT; for inhibition at 100 µM: read-out: % Growth Inhibition at 100 μM HepG-2
Description: as §1, §2, §3

[4] = tested on: BEL7402; assay: MTT antiproliferative assay, BEL7402; assay type: cell-based, human; conditions: for inhibition at 100 µM / pIC50 / % Growth Inhibition at 100 μM BEL7402: 48 h, MTT; for inhibition at 100 µM: read-out: % Growth Inhibition at 100 μM BEL7402
Description: as §1, §2, §3

[5] = tested on: HCT116; assay: MTT antiproliferative assay, HCT116; assay type: cell-based, human; conditions: for inhibition at 100 µM / pIC50 / % Growth Inhibition at 100 μM HCT116: 48 h, MTT; for inhibition at 100 µM: read-out: % Growth Inhibition at 100 μM HCT116
Description: as §1, §2, §3

[6] = tested on: MCF-7; assay: MTT antiproliferative assay, MCF-7; assay type: cell-based, human; conditions: for inhibition at 100 µM / pIC50 / % Growth Inhibition at 100 μM MCF-7: 48 h, MTT; for inhibition at 100 µM: read-out: % Growth Inhibition at 100 μM MCF-7
Description: as §1, §2, §3

[7] = tested on: human normal liver (L02) cells; assay: MTT assay on normal cell line L02; assay type: cell-based; conditions: 48 h, MTT; for inhibition at 100 µM / % Growth Inhibition at 100 μM L02: normal cells; for inhibition at 100 µM: read-out: % Growth Inhibition at 100 μM L02; for pIC50: normal cell line
[8] = IC50 on normal cells (L02)/IC50 on tumour cells

| SMILES | inhibition at 100 µM ([1]; Homo sapiens, A549) [%] | inhibition at 100 µM ([2]; Homo sapiens) [%] | inhibition at 100 µM ([3]; Homo sapiens, HepG2) [%] | inhibition at 100 µM ([4]; Homo sapiens, Bel-7402) [%] | inhibition at 100 µM ([5]; Homo sapiens, HCT-116) [%] | inhibition at 100 µM ([6]; Homo sapiens, MCF7) [%] | inhibition at 100 µM ([7]; Homo sapiens, L02) [%] | % Growth Inhibition at 100 μM A549 [1] | % Growth Inhibition at 100 μM Hela [2] | % Growth Inhibition at 100 μM HepG-2 [3] | % Growth Inhibition at 100 μM BEL7402 [4] | % Growth Inhibition at 100 μM HCT116 [5] | % Growth Inhibition at 100 μM MCF-7 [6] | % Growth Inhibition at 100 μM L02 [7] | other results |
| --- | --- | --- | --- | --- | --- | --- | --- | --- | --- | --- | --- | --- | --- | --- | --- |
| CC12CCC3C(CC=C4CC(O)CCC43C)C1C/C(=C\c1cn(-c3ccc(F)cc3)nn1)C2=O (stereo not shown) [Compound 2d, (E)-16-((1-(4-fluorophenyl)-1H-1,2,3-triazol-4-yl)methylene)-3-hydroxy-10,13-dimethyl-1,3,4,7,8,9,10,11,12,13,15,16-dodecahydro-2H-cyclopenta[a]phenanthren-17(14H)-one] | 68.8 | 78.9 | 65.6 | 60.4 | 84.9 | 83 | 80.3 |  |  |  |  |  |  |  | pIC50 ([1]; Homo sapiens, A549): 4.80; Selectivity Index A549 [1, 8]: 1.76; pIC50 ([2]; Homo sapiens, HeLa): 4.88; Selectivity Index Hela [2, 8]: 2.10; pIC50 ([3]; Homo sapiens, HepG2): 4.44; Selectivity Index HepG-2 [3, 8]: 0.77; pIC50 ([4]; Homo sapiens, Bel-7402): 4.39; Selectivity Index BEL7402 [4, 8]: 0.69; pIC50 ([5]; Homo sapiens, HCT-116): 4.48; Selectivity Index HCT116 [5, 8]: 0.83; pIC50 ([6]; Homo sapiens, MCF7): 4.75; Selectivity Index MCF-7 [6, 8]: 1.56; pIC50 ([7]; Homo sapiens, L02): 4.56 |
| COc1ccc(-n2cc(/C=C3\CC4C5CC=C6CC(O)CCC6(C)C5CCC4(C)C3=O)nn2)cc1 (stereo not shown) [Compound 2s, (E)-3-hydroxy-16-((1-(4-methoxyphenyl)-1H-1,2,3-triazol-4-yl)methylene)-10,13-dimethyl-1,3,4,7,8,9,10,11,12,13,15,16-dodecahydro-2H-cyclopenta[a]phenan-thren-17(14H)-one] |  |  |  |  |  |  |  | 44.0% | 14.9% | 42.3% | 38.4% | 70.7% | 58.1% | 58.5% | pIC50 [1]: < 4.00; pIC50 [2]: < 4.00; pIC50 [3]: < 4.00; pIC50 [4]: < 4.00; pIC50 [5]: 4.24; pIC50 [6]: 4.16; pIC50 [7]: 4.09 |
| CC12CCC3C(CC=C4CC(O)CCC43C)C1C/C(=C\c1cn(-c3ccccc3I)nn1)C2=O (stereo not shown) [Compound 2l, (E)-3-hydroxy-16-((1-(2-iodophenyl)-1H-1,2,3-triazol-4-yl)methylene)-10,13-dim-ethyl-1,3,4,7,8,9,10,11,12,13,15,16-dodecahydro-2H-cyclopenta[a]phenanthren-17(14H)-one] |  |  |  |  |  |  |  | NA (NA: antiproliferative activity <5%) | NA (NA: antiproliferative activity <5%) | NA (NA: antiproliferative activity <5%) | NA (NA: antiproliferative activity <5%) | NA (NA: antiproliferative activity <5%) | NA (NA: antiproliferative activity <5%) | NA (NA: antiproliferative activity <5%) |  |
| CC12CCC3C(CC=C4CC(O)CCC43C)C1C/C(=C\c1cn(-c3ccc(Cl)cc3)nn1)C2=O (stereo not shown) [Compound 2g, (E)-16-((1-(4-chlorophenyl)-1H-1,2,3-triazol-4-yl)methylene)-3-hydroxy-10,13-dimethyl-1,3,4,7,8,9,10,11,12,13,15,16-dodecahydro-2H-cyclopenta[a]phenanthren-17(14H)-one] | 69.8 | 62.8 | 32.5 | 66.9 | 78.7 | 39.9 | 40.9 |  |  |  |  |  |  |  | pIC50 ([1]; Homo sapiens, A549): 4.43; pIC50 ([2]; Homo sapiens, HeLa): 4.24; pIC50 ([3]; Homo sapiens, HepG2): < 4.00; pIC50 ([4]; Homo sapiens, Bel-7402): 4.23; pIC50 ([5]; Homo sapiens, HCT-116): 4.63; pIC50 ([6]; Homo sapiens, MCF7): < 4.00; pIC50 ([7]; Homo sapiens, L02): < 4.00 |
| COc1ccc(-n2cc(/C=C3\CC4C5CC=C6CC(O)CCC6(C)C5CCC4(C)C3=O)nn2)cc1OC (stereo not shown) [Compound 2t, (E)-16-((1-(3,4-dimethoxyphenyl)-1H-1,2,3-triazol-4-yl)methylene)-3-hydroxy-10,13-dimethyl-1,3,4,7,8,9,10,11,12,13,15,16-dodecahydro-2H-cyclopenta[a]phenan-thren-17(14H)-one] |  |  |  |  |  |  |  | NA (NA: antiproliferative activity <5%) | NA (NA: antiproliferative activity <5%) | NA (NA: antiproliferative activity <5%) | NA (NA: antiproliferative activity <5%) | NA (NA: antiproliferative activity <5%) | NA (NA: antiproliferative activity <5%) | 9.4% |  |
| CC12CCC3C(CC=C4CC(O)CCC43C)C1C/C(=C\c1cn(-c3cccc(I)c3)nn1)C2=O (stereo not shown) [Compound 2m, (E)-3-hydroxy-16-((1-(3-iodophenyl)-1H-1,2,3-triazol-4-yl)methylene)-10,13-dim-ethyl-1,3,4,7,8,9,10,11,12,13,15,16-dodecahydro-2H-cyclopenta[a]phenanthren-17(14H)-one] |  |  |  |  |  |  |  | NA (NA: antiproliferative activity <5%) | NA (NA: antiproliferative activity <5%) | NA (NA: antiproliferative activity <5%) | 14.1% | 7.6% | NA (NA: antiproliferative activity <5%) | NA (NA: antiproliferative activity <5%) |  |
| CC12CCC3C(CC=C4CC(O)CCC43C)C1C/C(=C\c1cn(-c3cccc(Cl)c3)nn1)C2=O (stereo not shown) [Compound 2f, (E)-16-((1-(3-chlorophenyl)-1H-1,2,3-triazol-4-yl)methylene)-3-hydroxy-10,13-dimethyl-1,3,4,7,8,9,10,11,12,13,15,16-dodecahydro-2H-cyclopenta[a]phenanthren-17(14H)-one] | 11.9 | 9.2 | 51.7 | 36.5 | 41.9 | 41 | 60.2 |  |  |  |  |  |  |  |  |
| COc1cc(-n2cc(/C=C3\CC4C5CC=C6CC(O)CCC6(C)C5CCC4(C)C3=O)nn2)cc(OC)c1OC (stereo not shown) [Compound 2u, (E)-3-hydroxy-10,13-dimethyl-16-((1-(3,4,5-trimethoxyphenyl)-1H-1,2,3-triazol-4-yl)methylene)-1,3,4,7,8,9,10,11,12,13,15,16-dodecahydro-2H-cyclopenta[a]phenanthren17(14H)-one] | 40.3 | 60.5 | 59.1 | 51.2 | 59.2 | 36.3 | 36.4 |  |  |  |  |  |  |  |  |
| CC12CCC3C(CC=C4CC(O)CCC43C)C1C/C(=C\c1cn(-c3ccccc3Cl)nn1)C2=O (stereo not shown) [Compound 2e, (E)-16-((1-(2-chlorophenyl)-1H-1,2,3-triazol-4-yl)methylene)-3-hydroxy-10,13-di-methyl-1,3,4,7,8,9,10,11,12,13,15,16-dodecahydro-2H-cyclopenta[a]phenan-thren-17(14H)-one] |  |  |  |  |  |  |  | NA (NA: antiproliferative activity <5%) | 32.8% | NA (NA: antiproliferative activity <5%) | 10.5% | 23.0% | 37.3% | 12.4% |  |
| C[C@]12CC[C@H](O)CC1=CC[C@@H]1[C@@H]2CC[C@]2(C)C(=O)CC[C@@H]12 [DHEA, Dehydroepiandrosterone] | 24.8 | 15.7 | 10.9 | 46.5 | 47.3 | 17.1 | 44.6 |  |  |  |  |  |  |  |  |
